Assay results: patent US12291518B2, “Thyroid hormone receptor agonists and use thereof” (Eccogene Inc., priority 2020, dated 2025)

Legend:
THR beta-LBD = target: T1, THR beta-LBD (Homo sapiens, UniProt P10828); experiment: THR-β Coactivator Peptide Recruitment Assay (LanthaScreen TR-FRET); assay type: biochemical; conditions: TR-FRET coactivator recruitment, THR beta-LBD 0.5 nM; for EC50: read-out: THRβ EC50
T1 construct: THR beta-LBD (the final concentration is 0.5 nM) was added to the 384-well assay plate; purchased Invitrogen PV4686
T1 sequence (P10828 217-461 limits assumed): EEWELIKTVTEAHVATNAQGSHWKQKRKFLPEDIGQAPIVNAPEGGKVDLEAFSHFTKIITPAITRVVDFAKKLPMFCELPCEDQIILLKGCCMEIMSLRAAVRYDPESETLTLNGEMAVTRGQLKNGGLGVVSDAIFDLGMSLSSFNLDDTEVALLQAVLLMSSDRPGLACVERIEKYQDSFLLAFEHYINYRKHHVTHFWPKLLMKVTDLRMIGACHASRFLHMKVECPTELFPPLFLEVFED
Summary of the method: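 Agonist-driven coactivator recruitment read as a 520/495 nm TR-FRET emission ratio after 2 h at room temperature. Final concentrations: THR beta-LBD 0.5 nM, fluorescein-SRC2-2 peptide 0.1 nM, terbium anti-GST antibody 2 nM. EC50 from four-parameter dose-response fitting.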

THR alpha-LBD = target: T2, THR alpha-LBD (Homo sapiens, UniProt P10827); experiment: THR-α Coactivator Peptide Recruitment Assay (LanthaScreen TR-FRET); assay type: biochemical; conditions: TR-FRET coactivator recruitment, THR alpha-LBD 0.25 nM; for EC50: read-out: THRα EC50
T2 construct: except that THR alpha-LBD of a final concentration 0.25 nM was used; purchased Invitrogen PV4687
T2 sequence (P10827 163-410 isoform P10827-2 limits assumed, other chains not shown): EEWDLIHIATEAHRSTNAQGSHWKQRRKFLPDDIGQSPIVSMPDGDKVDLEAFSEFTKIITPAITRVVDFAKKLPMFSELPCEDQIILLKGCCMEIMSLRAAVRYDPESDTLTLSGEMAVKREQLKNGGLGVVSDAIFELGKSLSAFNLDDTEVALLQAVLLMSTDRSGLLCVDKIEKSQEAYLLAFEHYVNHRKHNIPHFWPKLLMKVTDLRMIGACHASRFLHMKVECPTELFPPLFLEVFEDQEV
Summary of the method: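 TR-FRET coactivator recruitment with THR alpha-LBD at 0.25 nM final, Fluorescein-SRC2-2 peptide 0.1 nM and Tb-labeled anti-GST antibody 2 nM; 2 h incubation at room temperature. 520/495 nm emission ratio fitted to a four-parameter sigmoidal curve to give EC50.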

| Compound | THRβ Emax (THR beta-LBD) | EC50 (THR beta-LBD) [nM] | THRα Emax (THR alpha-LBD) | EC50 (THR alpha-LBD) [nM] |
| --- | --- | --- | --- | --- |
| CS(=O)(=O)N1CC(NS(=O)(=O)c2cc(Oc3c(Cl)cc(-n4nc(C(F)F)c(=O)[nH]c4=O)cc3Cl)ccc2O)C1 [Compound 54, 5-(2,6-dichloro-4-(6-(difluoromethyl)-3,5-dioxo-4,5-dihydro-1,2,4-triazin-2(3H)-yl)phenoxy)-2-hydroxy-N-(1-(methylsulfonyl)azetidin-3-yl)benzenesulfonamide] | C (<75) | 20 to 100 | B (40~85) | 200 to 1000 |
| CCS(=O)(=O)N[C@H]1CCN(S(=O)(=O)c2cc(Oc3c(Cl)cc(-n4nc(C(F)F)c(=O)[nH]c4=O)cc3Cl)ccc2O)C1 [Compound 55, (S)-N-(1-((5-(2,6-dichloro-4-(6-(difluoromethyl)-3,5-dioxo-4,5-dihydro-1,2,4-triazin-2(3H)-yl)phenoxy)-2-hydroxyphenyl)sulfonyl)pyrrolidin-3-yl)ethanesulfonamide] | B (75~90) | < 2 | B (40~85) | 2 to 200 |
| O=C(N[C@H]1CCN(S(=O)(=O)c2cc(Oc3c(Cl)cc(-n4nc(C(F)F)c(=O)[nH]c4=O)cc3Cl)ccc2O)C1)C1CC1 [Compound 56, (S)-N-(1-((5-(2,6-dichloro-4-(6-(difluoromethyl)-3,5-dioxo-4,5-dihydro-1,2,4-triazin-2(3H)-yl)phenoxy)-2-hydroxyphenyl)sulfonyl)pyrrolidin-3-yl)cyclopropanecarboxamide] | C (<75) | < 2 | B (40~85) | 2 to 200 |
| CNC(=O)N1CC(NS(=O)(=O)c2cc(Oc3c(Cl)cc(-n4nc(C(F)F)c(=O)[nH]c4=O)cc3Cl)ccc2O)C1 [Compound 57, 3-((5-(2,6-dichloro-4-(6-(difluoromethyl)-3,5-dioxo-4,5-dihydro-1,2,4-triazin-2(3H)-yl)phenoxy)-2-hydroxyphenyl)sulfonamido)-N-methylazetidine-1-carboxamide] | C (<75) | 20 to 100 | C (<40) | > 1000 |
| NC(=O)CNS(=O)(=O)c1cc(Oc2c(Cl)cc(-n3nc(C(F)F)c(=O)[nH]c3=O)cc2Cl)ccc1O [Compound 58, 2-((5-(2,6-dichloro-4-(6-(difluoromethyl)-3,5-dioxo-4,5-dihydro-1,2,4-triazin-2 (3H)-yl)phenoxy)-2-hydroxyphenyl)sulfonamido)acetamide] | B (75~90) | < 2 | A (85~110) | 2 to 200 |
| O=C(CNS(=O)(=O)c1cc(Oc2c(Cl)cc(-n3nc(C(F)F)c(=O)[nH]c3=O)cc2Cl)ccc1O)NC1CC1 [Compound 59, N-cyclopropyl-2-((5-(2,6-dichloro-4-(6-(difluoromethyl)-3,5-dioxo-4,5-dihydro-1,2,4-triazin-2(3H)-yl)phenoxy)-2-hydroxyphenyl)sulfonamido)acetamide] | A (90~110) | 2 to 20 | B (40~85) | 200 to 1000 |

Next, values leading:

| THRβ Emax (THR beta-LBD) | EC50 (THR beta-LBD) [nM] | THRα Emax (THR alpha-LBD) | EC50 (THR alpha-LBD) [nM] | Compound |
| --- | --- | --- | --- | --- |
| B (75~90) | 2 to 20 | B (40~85) | 2 to 200 | CNC(=O)CNS(=O)(=O)c1cc(Oc2c(Cl)cc(-n3nc(C(F)F)c(=O)[nH]c3=O)cc2Cl)ccc1O [Compound 60, 2-((5-(2,6-dichloro-4-(6-(difluoromethyl)-3,5-dioxo-4,5-dihydro-1,2,4-triazin-2(3H)-yl)phenoxy)-2-hydroxyphenyl)sulfonamido)-N-methylacetamide] |
| B (75~90) | 2 to 20 | B (40~85) | > 1000 | CNC(=O)[C@H]1C[C@H](NS(=O)(=O)c2cc(Oc3c(Cl)cc(-n4nc(C(F)F)c(=O)[nH]c4=O)cc3Cl)ccc2O)C1 [Compound 61, (1r,3r)-3-((5-(2,6-dichloro-4-(6-(difluoromethyl)-3,5-dioxo-4,5-dihydro-1,2,4-triazin-2(3H)-yl)phenoxy)-2-hydroxyphenyl)sulfonamido)-N-methylcyclobutane-1-carboxamide] |
